Laboratory results taken from article PMC12948223, “HSP70 Interactome‐Mediated Proteolysis Targeting Chimera (HSP70‐PROTAC) for Ferroptosis‐Driven Cancer Treatment” (Advanced Science, 2025).
Where two headings read alike, the source gives them in different places.

Columns and labels:
[1] = biological target: T1, GPX4 (Homo sapiens, UniProt P36969); experiment: GPX4 degradation by western blot in MDA-MB-231 cells; type: cell-based; set-up: determine the changes in the endogenous levels of GPX4 by western blot assay; endogenous in cells; settings: 24 h
T1 sequence (P36969 1-170 isoform P36969-2): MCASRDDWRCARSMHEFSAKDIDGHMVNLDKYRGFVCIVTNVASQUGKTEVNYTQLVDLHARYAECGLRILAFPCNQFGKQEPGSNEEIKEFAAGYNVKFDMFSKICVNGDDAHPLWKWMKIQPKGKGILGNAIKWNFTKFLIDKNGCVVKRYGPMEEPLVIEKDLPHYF
Procedure: (§1) To further confirm this degradation efficacy, an in‐cell western (ICW) assay, a quantitative immunofluorescence cell‐based technique, was performed to quantify the relative expression level of GPX4 after treatment with GDAz‐3 for 24 h. […] Given the promising GPX4 degradation activity of GDAz‐3, we extended our evaluation to additional ferroptosis‐sensitive cell lines, including triple‐negative breast cancer cells (MDA‐MB‐231) and melanoma cells (mouse B16‐F10). […] Based on the observation that GDAz‐3 was particularly effective in HT1080 cells, we selected this cell line for further degradation mechanism and ferroptosis pharmacodynamics studies.
(§2) Cells were seeded at a density of 4 × 10^5 cells well^−1 in 6‐well plates and allowed to incubate overnight. Cells were incubated with the indicated treatments. Thereafter, the cells were collected and lysed with RIPA buffer containing serine protease and phosphatase inhibitors for 30 min on ice. Proteins were quantified by using a BCA protein assay kit (Beyotime). […] Ultimately, the membrane was washed five times, and the antibody‐protein complexes were visualized using an ECL luminescence reagent (Biosharp, Shanghai, China). The relative intensities of the bands were analyzed by ImageJ and normalized to a loading control.

[2] = test system: intracellular ROS; experiment: Intracellular ROS (DCFH-DA, CLSM) in HT1080 cells; type: cell-based, human; settings: 1 µM, 24 h
Procedure: To assess the total intracellular levels of reactive oxygen species (ROS), a DCFH‐DA (Dichloro‐dihydro‐fluorescein diacetate) assay kit was utilized. Briefly, HT1080 cells were seeded into confocal laser culture dishes and allowed to adhere for 24 h. Afterward, the cells were treated with GDAz‐3 at a concentration of 1 µM for 24 h. Subsequently, a DCFH‐DA probe was added to the cells and they were incubated for 20 min. After washing twice with PBS, the cells were visualized and imaged using a confocal laser scanning microscopy (CLSM).

[3] = test system: Fe2+; experiment: Intracellular Fe2+ in HT1080 cells; type: cell-based, human; settings: HT1080 cells, 0.1, 0.5 and 1 µM, 24 h
Procedure: HT1080 cells were seeded into 10‐cm culture dishes at a density of 2 × 10⁶ cells overnight, and various concentrations of GDAz‐3 (0.1, 0.5, and 1 µM) were added. The cells were digested and collected after treatment with drugs for 24 h. The cells were detected according to the instructions of the Cell Ferrous Iron (Fe^2⁺) Fluorometric Assay Kit (E‐BC‐F101, Elabscience Biotechnology Co., Ltd.). In brief, the cells were washed twice with Reagent 1 working solution in the kit, and then Reagent 2 working solution was added (1 mL per 10⁶ cells). The cells were incubated at 37 °C in the dark for 30–60 min. The samples were centrifuged at 300 × g for 5 min, and the supernatant was discarded. The cells were washed two to three times with Reagent 1 working solution. After resuspending the cells in 0.2–0.5 mL of Reagent 1 working solution, the samples were detected using a fluorescence microplate reader (excitation wavelength: 542 nm, emission wavelength: 575 nm).

[4] = biological target: T2, GPX4 (Mus musculus, UniProt O70325); experiment: GPX4 degradation by western blot in B16-F10 cells; type: cell-based; settings: 3 µM, 24 h
T2 construct: endogenous in cells; host or cells: B16-F10
T2 sequence (O70325 1-170 isoform O70325-2): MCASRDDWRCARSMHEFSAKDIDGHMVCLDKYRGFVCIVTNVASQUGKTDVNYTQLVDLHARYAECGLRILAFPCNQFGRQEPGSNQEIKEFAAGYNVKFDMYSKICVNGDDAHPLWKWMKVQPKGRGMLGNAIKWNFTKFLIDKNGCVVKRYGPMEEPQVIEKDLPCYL
Procedure: as §1, §2

[5] = biological target: T1, GPX4; experiment: GPX4 degradation by western blot in HT1080 cells; type: cell-based; set-up: determine the changes in the endogenous levels of GPX4 by western blot assay; endogenous in cells; host or cells: HT1080 fibrosarcoma cells, including siRNA-knockdown derivatives; settings: for remaining activity at 0.5 µM: HT-1080, HT1080 cells, read-out: GPX4 % of control; for remaining activity at 1 µM: read-out: % of control (GPX4/GAPDH)
How it was run: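 HT1080 fibrosarcoma cells were treated 24 h with PROTACs at 0.1, 0.3, 1 and 3 µM. Endogenous GPX4 was measured by western blot of RIPA lysates, with band intensities normalized to a loading control.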

COc1ccc(-c2nc(-c3cc(C(F)(F)F)cc(C(F)(F)F)c3)n(Cc3ccc(C(=O)NCCOCCOCCOCCn4cc(COc5ccc(N(C(=O)CCl)C(C(=O)NCCc6ccccc6)c6cccs6)cc5Cl)nn4)cc3)c2-c2ccc(OC)cc2)cc1 (stereo not shown) [GDAz-3, 4-((2-(3,5-bis(trifluoromethyl)phenyl)-4,5-bis(4-methoxyphenyl)-1H-imidazol-1-yl)methyl)-N-(2-(2-(2-(2-(4-((2-chloro-4-(2-chloro-N-(2-oxo-2-(phenethylamino)-1-(thiophen-2-yl)ethyl)acetamido)phenoxy)methyl)-1H-1,2,3-triazol-1-yl)ethoxy)ethoxy)ethoxy)ethyl)benzamide]
GPX4 degradation [1]: effectively induce the degradation of GPX4 to varying extents | Level of intracellular ROS [2]: enhanced | Content of Fe2+ [3]: increased | GPX4 level [4]: markedly decreased GPX4 level | GPX4 degradation in wild-type and CRBN- or VHL-knockdown HT1080 cells ([5]; 0.5 µM, 24 h): promoted the degradation of GPX4 | GPX4 degradation in BAG3-knockdown cells ([5]; BAG3 siRNA HT1080 cells, 24 h): completely abolished | GPX4 degradation in CHIP-knockdown cells ([5]; CHIP siRNA HT1080 cells, 24 h): did not induce any detectable protein degradation of GPX4 | Reduction of the GPX4 protein level ([5]; HT1080 cells, 0.1 µM, 24 h): ≈ 50% | GPX4 degradation ([5]; HT1080 cells, 0.3 µM, 24 h (Figure 3A)): effectively triggered substantial GPX4 degradation | Sustained GPX4 degradation upon washout ([5]; HT1080 cells, 1 µM for 24 h, then rinsed with PBS): without obvious recovery even 24 h after removal of the degrader | GPX4 protein level, degradation kinetics ([5]; HT1080 cells, 1 µM, 8 h): obviously reduced GPX4 protein level | GPX4 degradation efficiency versus reported GPX4 degraders ([5]; HT1080 cells, 1 µM, 24 h): comparable GPX4 degradation efficiency | GPX4 protein level, degradation kinetics ([5]; HT1080 cells, 1 µM, 24 h): complete GPX4 depletion | DC50 ([5]; HT1080 cells, 24 h): 130 nM | GPX4 degradation effect in combination with 3-methyladenine (3-MA) ([5]; HT1080 cells, 24 h): partially rescued | GPX4 degradation effect after proteasome inhibitor ([5]; HT1080 cells, MG132 5 µM for 2 h before GDAz-3 for 24 h): completely abrogated | remaining activity at 0.5 µM ([5]; GDAz-3 0.5 µM 12 h after pre-treatment with MLN4924 2.5 µM for 2 h): 61% | remaining activity at 0.5 µM ([5]; GDAz-3 0.5 µM, 12 h): 45% | remaining activity at 1 µM ([5]; HT-1080, HT-1080, 1 µM, 24 h): 45% | remaining activity at 1 µM ([5]; HT-1080, HT-1080-siRNA-LAMP2A (LAMP2A knockdown), 1 µM, 24 h): 68% | GPX4 degradation in Hsc70-knockdown cells ([5]; Hsc70 siRNA HT1080 cells, 1 µM, 24 h): markedly abrogated | GPX4 degradation in Hsp70-knockdown cells ([5]; Hsp70 siRNA HT1080 cells, 24 h): not affected
